These are literature values, as cited in patent US20040097484A1 (priority 2002, published 2004).

The conditions of this data set: in vivo.

As to `COc1ccc2c3c1O[C@H]1C[C@@H](O)C=C[C@@]31CCN(C)C2` [galantamine, 4a, 5,9, 10, 11, 12-hexahydro-3-methoxy-11-methyl-6H-benzofuro [3a, 3,2-e][2] benzazepin-6-ol], the “effective plasma concentration duration (sufficient elimination half-life)” value was “at least 4 hours”.
